Like-named read-outs stand apart in the source and are kept apart here.
Key:
PC-3 cells = assay: BrdU labeling, DNA synthesis (Cell Proliferation ELISA BrdU); format: cell-based, human; conditions: 5 μM compound, 24 hours
Method: PC-3 cells were plated in 96-well plates and treated with 5 μM of compound. After 24 hours, the cells were assayed for BrdU labeling using the Cell Proliferation ELISA BrdU kit from Roche; background BrdU incorporation levels (absent anti-BrdU-peroxidase solution) were subtracted and values were normalized to those of control untreated cells.
BrdU Labeling. For the BrdU experiment, PC-3 cells were seeded in 96-well plates at a density of 2×10^3 cells/well, treated with 5 μM of compound for 24 hr and assayed BrdU using the Cell Proliferation ELISA BrdU (chemiluminescence) (Roche Diagnostics, IN) kit according to the manufacturer's protocol. Briefly, 10 μL of 100 μM BrdU labeling solution was added to the cultured cells and were incubated for 1 hr at 37° C., the labeling solution was removed and the FixDenat solution provided with the kit was added for 30 min and incubated at room temperature. Cells were then incubated with anti-BrdU conjugated to peroxidase (1:1500) for 60 min. Finally, the plates were washed and 100 μL of substrate solution was added to each well, and the light emission was measured using a microplate luminometer (Harta Instruments, Inc., Gaithersburg, Md.).
To assess the levels of DNA synthesis within cells treated with mahanine compared to those treated with compounds 6-10, cultured cells were treated according to standard procedure with 5-bromo-2-deoxy-uridine (BrdU) after 24 hours of treatment (FIG. 2).

[1] = test system: DNA methyltransferase (DNMT); assay: DNA methyltransferase activity assay (EpiQuik kit, nuclear extracts of treated PC-3 cells); format: cell-based, human; conditions: 72 hours
Method: Black bars: PC-3 cells were treated 72 hours with either mahanine or compound 6a at 5 μM or compound 6, 7, 7a, 8, or 9 at 15 μM and then assayed for DNMT activity using the DNMT activity kit from Epigentek. Data are mean of three independent experiments ±SEM. Grey bars: Densitometry from RT-PCR blot where the amount of RASSF1A mRNA re-expressed by mahanine treatment is normalized to 100%.
DNA methyltransferase activity assay. PC-3 cells were plated in complete growth media, treated with either mahanine or compound 6a at 2 μM or compound 6, 7, 7a, 8, 9, 10 at 15 μM for 3 days and then harvested. Nuclear extracts were prepared according to manufacturer's protocol (Nuclear extraction kit, Epigentek). DNMT activity was measured using an EpiQuik DNA methyltransferase activity assay kit (Epigentek). Results were expressed as percent DNMT activity compared to the DMSO control as 100%.
The levels of DNMT activity in treated versus untreated prostate cancer cells were measured using a DNMT assay kit from Epigentek. […] These reduced DNMT activities correlate with the pattern of RASSF1A induction described above (FIG. 7, grey bars). The data imply that inhibition of DNMT prevents hypermethylation of the RASSF1A promoter region and consequently restores RASSF1A.

PC3 cells = assay: Cell growth assay, trypan blue dye exclusion count; format: cell-based
Method: Cell Line and Cell Growth Assay. Human prostate cancer cell line PC-3 was procured from the American Type Cell Culture Collection (Manassas, Va.). Cells were grown in IMEM without phenol red (Invitrogen, Carlsbad, Calif.) with 10% fetal bovine serum, 2 mM glutamine, 100 U/mL penicillin G sodium, and 100 μg/mL streptomycin sulfate (Sigma, St. Louis, Mo.) in the presence of 5% CO2 at 37° C. For the cell growth experiment, PC-3 cells were seeded in 6-well plates in triplicate with an initial density of 2×10^3 cells per well. Twenty-four hours after seeding, the attached cells were treated with vehicle (DMSO) or 1, 5, 15, 30 and 60 μM compound. After another twenty-four hours, the cells were washed with 1×PBS, trypsinized and re-suspended in complete growth medium. Trypan blue (0.4%) was added to the cell suspension and both live and dead cells were counted using a hemocytometer.
Compounds 6-10 were screened for growth inhibition in PC-3 human prostate cancer cells using previously reported methods (Table 1; Sinha et al. The Prostate. 2006, 66, 1257-1265). […] This was unexpected, since the methyl moiety of mahanine is in the 3-position. Compound 9, with its GI50 value near that of the compound 6 series (compounds 6, 6a, 8) and a deprotected hydroxyl group in the 2-position, implies that whatever hindrance is imposed by a methyl in the 3-position can be partially overcome if steric bulk at the 2-position is reduced. Indeed, looking at the structure of mahanine, the restraint of the ether cycle may provide enough reduction of apparent bulk at the 2-position to moderate its methyl in the 3-position. Additionally, the ether ring system puts the equivalent of a methyl group in the 1-position, which could also be aiding in the low μM activity of mahanine, if the relatively lower values for the compound 6 series are any indication. Moreover, analyzing the structure of compound 10 based on the same criteria, the double-bonded carbon of the ether cycle in the 3-position along with bulk off the 2-position might explain its lesser growth inhibition when compared to mahanine, while the methyl in the 1-position still gives it better activity than compounds 7 and 7a.

RASSF1A = assay: RT-PCR of RASSF1A mRNA in treated PC-3 cells; format: cell-based, human
Method: (§1) Representative photograph of an experiment repeated thrice. PC-3 cells were treated 24 hours with either 15 μM for compounds 6, 7, 7a, 8, 9, 10 or 5 μM for compound KED-4-69 (compound 6a) before RNA extraction and RT-PCR amplification.
(§2) Reverse Transcriptase-polymerase Chain Reaction (RT-PCR). From PC-3 cells incubated 24 hours with either 15 μM of compound 6, 7, 7a, 8, 9, 10 or 5 μM of KED-4-69 (compound 6a), RNA was extracted with TRIzol solution (Invitrogen, Carlsbad, Calif.) and genes of interest were amplified using 500 ng of total RNA reverse-transcribed to cDNA using a Superscript II kit (Invitrogen) with random hexamers. Human-specific primers were designed using the Primer Quest program and purchased from Integrated DNA Technologies, Inc. (Coralville, Iowa). Their sequences and product band sizes are: cyclin D1 forward primer 5′-[…]-3′ (SEQ ID NO:1), cyclin D1 reverse primer 5′-[…]-3′ (SEQ ID NO:2) (475 bp) and GAPDH forward primer: 5′-CCA […]-3′ (SEQ ID NO:3), GAPDH reverse primer: 5′-TCTAGACGGCAG GTCAGGTCCACC-3′ (SEQ ID NO:4) (598 bp). PCRs were initiated at 94° C. for 2 min, followed by 28 cycles of 94° C. for 1 min, 1 min annealing temperature, 72° C. for 1 min, and final extension at 72° C. for 5 min. The annealing temperature for cyclin D1 and GAPDH was 60° C. Primers and PCR conditions for RASSF1A are used as described by Rong et al. (Oncogene. 2004, 23, 8216-8230). After amplification, PCR products were separated on 1.5% agarose gels and visualized by ethidium bromide fluorescence using the Fuji LAS-1000 Imager. Images were captured and imported to Adobe Photoshop. Band intensities were quantified by using ImageJ software (NIH, Bethesda, Md.).
(§3) It has been reported that mRNA levels of RASSF1A correlate to its protein expression levels (Rong et al. Oncogene, 2004, 23: 8216-8230). To investigate the effects of the synthetic compounds on RASSF1A and cyclin D1 expression, levels of the respective mRNAs in treated cells compared to control were analyzed (FIG. 3). […] Because overexpression of cyclin D1 is associated with tumorigenicity and proliferation in a variety of tumors, including prostate cancers, this downregulation provides a cancer treatment method (Chen, Y. et al. Oncogene. 1998, 16, 1913-1920; Musgrove, E. A. et al. Proc. Natl. Acad. Sci. USA. 1994, 91, 8022-8026).

cyclin D1 = assay: RT-PCR of cyclin D1 mRNA in treated PC-3 cells; format: cell-based, human
Method: as §1, §2, §3

[2] = Homo sapiens, PC-3, concentration for 50% growth inhibition in PC3 cells, 24 hours of treatment, mean ± SEM of three observations, read-out: GI50
[3] = mahanine, concentration not given

Row | Compound | DNA synthetic ability (BrdU labeling) (PC-3 cells) | DNMT activity versus DMSO control ([1]; 15 μM) | RASSF1A mRNA level versus control (RASSF1A; 15 μM, 24 hours) | GI50 (PC3 cells; [2]) [µM] | cyclin D1 mRNA level versus control (cyclin D1; 15 μM, 24 hours) | other results
1 | COc1ccc2c(c1)[nH]c1c(C)c(O)ccc12 [Compound 8, 7-Methoxy-1-methyl-9H-carbazol-2-ol] | no change in the DNA synthetic ability | slight decrease in DNMT activity | – | – | – | GI50 (PC3 cells; Homo sapiens, PC-3, 24 h): 18.7 ± 1.8 µM
2 | COc1ccc2c(c1)[nH]c1cc(OS(=O)(=O)c3cccc4c(N(C)C)cccc34)c(C)cc12 [Compound 7a, 7-Methoxy-3-methyl-9H-carbazol-2-yl 5-(dimethylamino)naphthalene-1-sulfonate] | – | – | no change in expression levels from control | 22.9 ± 4.5 | no change in expression levels from control | –
3 | COc1ccc2c(c1)[nH]c1cc(O)c(C)cc12 [Compound 9, 7-Methoxy-3-methyl-9H-carbazol-2-ol] | decrease in DNA synthetic ability | slight decrease in DNMT activity | – | 15.3 ± 2.8 | – | –
4 | mahanine [reference compound] | decrease in DNA synthetic ability | – | – | – | – | RASSF1A mRNA level versus control (RASSF1A; [3]): significant increase in RASSF1A; DNMT activity versus DMSO control ([1]; 5 μM (FIG. 7 legend; method says 2 μM)): Significant inhibition of DNMT activity; doses at which cytotoxic (PC3 cells; PC-3 cells): above 5 μM; GI50 (PC3 cells; concentration for 50% growth inhibition in PC3 cells, 24 hours of treatment, mean ± SEM of three observations, read-out: GI50): 2.5 ± 0.18 µM; cyclin D1 mRNA level versus control (cyclin D1; [3]): corresponding decrease in cyclin D1
5 | COc1ccc2c(c1)[nH]c1cc(OCc3ccccc3)c(C)cc12 [Compound 7, 2-(benzyloxy)-7-methoxy-3-methyl-9H-carbazole] | – | – | no change in expression levels from control | 48.9 ± 1.1 | no change in expression levels from control | –
6 | COc1ccc2c(c1)[nH]c1c(C)c(OCc3ccccc3)ccc12 [Compound 6, 2-(Benzyloxy)-7-methoxy-1-methyl-9H-carbazole] | decrease in DNA synthetic ability | Significant inhibition of DNMT activity | significant increase in RASSF1A | 17.6 ± 2.7 | corresponding decrease in cyclin D1 | –

— patent US10457639B2, “Fluorescent regulators of RASSF1A expression and human cancer cell proliferation” (GEORGETOWN UNIVERSITY, priority 2008, dated 2019)
